Results reported in article PMC6199744, “Development of Chemical Proteomics for the Folateome and Analysis of the Kinetoplastid Folateome” (ACS Infectious Diseases, 2018).

Tested on: L. major lysate proteins
Assay: Multitargeted bead mixture chemoproteomics, single concentration competition, proteome-wide
Type: binding

`Nc1nc2[nH]cc(CCc3ccc(C(=O)N[C@@H](CCC(=O)O)C(=O)O)cc3)c2c(=O)[nH]1` [PTX, pemetrexed] was tested, and the “fold change relative to vehicle control” value (protein LMJF.35.1380, MIT[…], BETA SUBUNIT, PUTATIVE) was 0.94, the “fold change vs vehicle control” value (protein LMJF.35.1830 HY[…], CONSERVED) was 0.93 and the “fold change vs vehicle control” value (protein LMJF.35.3340 6-phosphogluconate dehydrogenase) was 1.01. For the same molecule, the fold change (protein LMJF.35.3700 GIM5A PROTEIN, PUTATIVE,[…] PROTEIN, vehicle control = 1) was 0.93, the “fold change vs vehicle control” value (protein LMJF.35.3760 60S RIBOSOMAL PROTEIN L27A/L29, PUTATIVE) was 1.08 and the “fold change relative to vehicle control” value (protein LMJF.35.3840, […] 2 SUBUNIT, PUTATIVE) was 0.83. The “fold change vs vehicle control” value (protein LMJF.35.3860 T-COMPLEX PROTEIN 1, ETA SUBUNIT, PUTATIVE) was 0.97, the fold change (protein LMJF.35.4420 MIT[…] TRANSPORTER, PUTATIVE, vehicle control = 1) was 1.01 and the “fold change relative to vehicle control” value (protein LMJF.35.4880, HY[…], CONSERVED (TPR repeat, putative)) was 1.4. The “fold change relative to vehicle control” value (protein LMJF.35.5330, ISOPENTENYL-D[…]-ISOMERASE, PUTATIVE) was 1.04, the “fold change relative to vehicle control” value (protein LMJF.36.0070, STRESS-INDUCIBLE PROTEIN STI1 HOMOLOG) was 1.49 and the fold change (protein LMJF.36.0480 HY[…], CONSERVED, vehicle control = 1) was 0.95. For the same molecule, the “fold change vs vehicle control” value (protein LMJF.36.0620 HY[…], CONSERVED) was 0.88, the “fold change vs vehicle control” value (protein LMJF.36.0930 40S RIBOSOMAL PROTEIN S18, PUTATIVE) was 1.13 and the “fold change vs vehicle control” value (protein LMJF.36.0990 40S RIBOSOMAL PROTEIN S10, PUTATIVE) was 1.06. For the same molecule, the fold change (protein LMJF.36.1140 SHORT CHAIN 3-HYDROXYACYL-COA DEHYDROGENASE, PUTATIVE, vehicle control = 1) was 0.9, the “fold change relative to vehicle control” value (protein LMJF.36.1260, FRUCTOSE-1,6-BI[…]) was 1.12 and the fold change (protein LMJF.36.1340 N-ACETYLT[…] NAT1, PUTATIVE, vehicle control = 1) was 0.98. For the same molecule, the “fold change vs vehicle control” value (protein LMJF.36.1370 TRANSITIONAL ENDOPLASMIC RETICULUM ATPASE, PUTATIVE,VALOSIN-CONTAINING PROTEIN HOMOLOG) was 0.94, the “fold change vs vehicle control” value (protein LMJF.36.1650 […] 5 SUBUNIT, PUTATIVE) was 1.01 and the “fold change relative to vehicle control” value (protein LMJF.36.2380, STEROL 24-C-METHYLTRANSFERASE, PUTATIVE) was 0.95. For the same molecule, the “fold change vs vehicle control” value (protein LMJF.36.2950 SUCCINYL-COA LIGASE GDP-FORMING] BETA-CHAIN, PUTATIVE) was 0.96, the “fold change vs vehicle control” value (protein LMJF.36.3210 14-3-3 PROTEIN-LIKE PROTEIN) was 0.92 and the “fold change vs vehicle control” value (protein LMJF.36.3410 SHORT CHAIN DEHYDROGENASE-LIKE PROTEIN) was 1.04. The fold change (protein LMJF.36.3460 HY[…], CONSERVED (NIPSNAP, putative), vehicle control = 1) was 0.94, the fold change (protein LMJF.36.3580 HY[…], CONSERVED (Protein of unknown function (DUF2009), putative), vehicle control = 1) was 1.01 and the fold change (protein LMJF.36.3750 40S RIBOSOMAL PROTEIN S27-1, PUTATIVE, vehicle control = 1) was 0.86. The “fold change vs vehicle control” value (protein LMJF.36.3910 S-ADENOSYLHO[…]) was 0.95, the “fold change vs vehicle control” value (protein LMJF.36.5010 40S RIBOSOMAL PROTEIN SA, PUTATIVE) was 1.03 and the “fold change vs vehicle control” value (protein LMJF.36.5130 HY[…], CONSERVED) was 0.91. For the same molecule, the “fold change vs vehicle control” value (protein LMJF.36.5150 HY[…], CONSERVED) was 0.87, the “fold change relative to vehicle control” value (protein LMJF.36.5380, NADH DEHYDROGENASE, PUTATIVE) was 0.93 and the “fold change vs vehicle control” value (protein LMJF.36.5390 PHOSPHORIBOSYLPYR[…], PUTATIVE) was 0.98. The “fold change vs vehicle control” value (protein LMJF.36.5620 ISOLEUCYL-TRNA SYNTHETASE, PUTATIVE) was 0.96, the fold change (protein LMJF.36.6430 PROTEIN TRANSPORT PROTEIN SEC23-LIKE PROTEIN, vehicle control = 1) was 0.86 and the “fold change vs vehicle control” value (protein LMJF.36.6760 HY[…], CONSERVED) was 0.92. The “fold change relative to vehicle control” value (protein LMJF.[…], MIT[…] BETA SUBUNIT, PUTATIVE) was 0.97, the “fold change relative to vehicle control” value (protein LMJF.[…], POLY(A) EXPORT PROTEIN, PUTATIVE) was 1.13 and the fold change (vs vehicle control, protein LINJ.20.0630 CYTIDINE TR[…], PUTATIVE,CTP SYNTHASE, PUTATIVE) was 0.98. It also gave a fold change (vs vehicle control, protein LINJ.20.1390 COATOMER BETA SUBUNIT, PUTATIVE) of 0.66, a fold change (vs vehicle control, protein LMJF.05.1140 VACUOLAR ATPASE SUBUNIT-LIKE PROTEIN) of 0.84 and a fold change (vs vehicle control, protein LMJF.07.1090 DELTA-5 FATTY ACID DESATURASE) of 0.92. The fold change (vs vehicle control, protein LMJF.09.0220 HY[…], CONSERVED) was 0.65, the fold change (vs vehicle control, protein LMJF.11.1030 HY[…], CONSERVED) was 0.9 and the fold change (vs vehicle control, protein LMJF.14.0640 FATTY ACID ELONGASE, PUTATIVE) was 0.83. For the same molecule, the fold change (vs vehicle control, protein LMJF.14.0705 FATTY ACID ELONGASE, PUTATIVE) was 0.85, the fold change (vs vehicle control, protein LMJF.14.1120 KINESIN K39, PUTATIVE) was 0.88 and the fold change (vs vehicle control, protein LMJF.16.1610 PROHIBITIN) was 1.07. For the same molecule, the fold change (vs vehicle control, protein LMJF.17.0010 HY[…], CONSERVED) was 0.88, the fold change (vs vehicle control, protein LMJF.18.1130 RAS-RELATED PROTEIN RAB-5, PUTATIVE) was 0.65 and the fold change (vs vehicle control, protein LMJF.19.1420 CYSTEINE PEPTIDASE A (CPA)) was 0.88. For the same molecule, the fold change (vs vehicle control, protein LMJF.21.0280 HY[…], CONSERVED) was 0.88, the fold change (vs vehicle control, protein LMJF.22.1560 40S RIBOSOMAL PROTEIN L14, PUTATIVE) was 0.87 and the fold change (vs vehicle control, protein LMJF.23.1220 T-COMPLEX PROTEIN 1, GAMMA SUBUNIT, PUTATIVE) was 0.94. It also gave a fold change (vs vehicle control, protein LMJF.24.0370 ASPARTATE AMINOTRANSFERASE, PUTATIVE) of 1.06, a fold change (vs vehicle control, protein LMJF.25.1770 ENOYL-COA REDUCTASE, PUTATIVE) of 1.06 and a fold change (vs vehicle control, protein LMJF.26.0170 60S RIBOSOMAL PROTEIN L7, PUTATIVE) of 0.79. The fold change (vs vehicle control, protein LMJF.26.1550 TRIFUNCTIONAL ENZYME ALPHA SUBUNIT, MIT[…]-LIKE PROTEIN) was 1.12, the fold change (vs vehicle control, protein LMJF.26.1610 PROLINE OXIDASE, MIT[…]-LIKE PROTEIN) was 0.89 and the fold change (vs vehicle control, protein LMJF.28.1950 X-PRO, DIPEPTIDYL-PEPTIDASE,SERINE PEPTIDASE, CLAN SC, FAMILY S15, PUTATIVE) was 0.74. For the same molecule, the fold change (vs vehicle control, protein LMJF.31.1070 BIOTIN/LIPOATE PROTEIN LIGASE-LIKE PROTEIN) was 0.65, the fold change (vs vehicle control, protein LMJF.32.1370 HY[…], CONSERVED) was 0.79 and the fold change (vs vehicle control, protein LMJF.34.0490 IMPORTIN BETA-1 SUBUNIT, PUTATIVE) was 0.77. For the same molecule, the fold change (vs vehicle control, protein LMJF.34.4060 UBIQUITIN HYDROLASE, PUTATIVE,CYSTEINE PEPTIDASE, CLAN CA, FAMILY C19, PUTATIVE) was 0.78, the fold change (vs vehicle control, protein LMJF.36.1600 […] 1 SUBUNIT, PUTATIVE) was 0.85 and the fold change (vs vehicle control, protein LMJF.[…] RIBOSOMAL PROTEIN S7, PUTATIVE) was 1.19.
